Data reported in ChEMBL document CHEMBL4422624, “A novel class of anthraquinone-based HDAC6 inhibitors” (Eur J Med Chem, 2019).
Activity calls are given as the source filed them. The calls are words filed in the database; no cut-off is given here.

Key:
Histone deacetylase 1 [1] = molecular target: T1, Histone deacetylase 1 (Homo sapiens, UniProt Q13547); assay: Inhibition of human recombinant HDAC1 using fluorogenic HDAC substrate-3 by fluorescence assay
Histone deacetylase 2 = Histone deacetylase 2 (Homo sapiens, UniProt Q92769); assay: Inhibition of HDAC2 (unknown origin) using fluorogenic HDAC substrate-3 by fluorescence assay
Histone deacetylase 3 = Histone deacetylase 3 (Homo sapiens, UniProt O15379); assay: Inhibition of human recombinant HDAC3 using fluorogenic HDAC substrate-3 by fluorescence assay
Histone deacetylase 8 = molecular target: T2, Histone deacetylase 8 (Homo sapiens, UniProt Q9BY41); assay: Inhibition of human recombinant HDAC8 using fluorogenic HDAC substrate class 2A by fluorescence assay
T2 sequence (Q9BY41 whole entry): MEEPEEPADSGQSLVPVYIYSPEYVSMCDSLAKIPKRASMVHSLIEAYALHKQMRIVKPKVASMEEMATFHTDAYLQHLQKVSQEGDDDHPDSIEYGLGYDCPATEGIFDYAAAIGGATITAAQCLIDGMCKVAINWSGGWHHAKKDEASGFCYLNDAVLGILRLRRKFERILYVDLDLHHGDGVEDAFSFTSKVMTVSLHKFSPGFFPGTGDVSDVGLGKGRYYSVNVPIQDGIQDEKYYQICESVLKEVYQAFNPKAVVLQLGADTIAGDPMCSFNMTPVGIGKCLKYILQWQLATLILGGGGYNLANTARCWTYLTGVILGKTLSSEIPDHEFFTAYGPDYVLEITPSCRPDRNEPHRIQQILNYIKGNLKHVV

Histone deacetylase 4 = Histone deacetylase 4 (Homo sapiens, UniProt P56524); assay: Inhibition of human recombinant HDAC4 using fluorogenic HDAC substrate class 2A by fluorescence assay
Histone deacetylase 5 = Histone deacetylase 5 (Homo sapiens, UniProt Q9UQL6); assay: Inhibition of human recombinant HDAC5 using fluorogenic HDAC substrate class 2A by fluorescence assay
Histone deacetylase 9 = Histone deacetylase 9 (Homo sapiens, UniProt Q9UKV0); assay: Inhibition of human recombinant HDAC9 using fluorogenic HDAC substrate class 2A by fluorescence assay
[2] = molecular target: T3, Protein deacetylase HDAC6 (Homo sapiens, UniProt Q9UBN7); assay: Inhibition of human recombinant HDAC6 using fluorogenic HDAC substrate-3 by fluorescence assay
T3 sequence (Q9UBN7 whole entry): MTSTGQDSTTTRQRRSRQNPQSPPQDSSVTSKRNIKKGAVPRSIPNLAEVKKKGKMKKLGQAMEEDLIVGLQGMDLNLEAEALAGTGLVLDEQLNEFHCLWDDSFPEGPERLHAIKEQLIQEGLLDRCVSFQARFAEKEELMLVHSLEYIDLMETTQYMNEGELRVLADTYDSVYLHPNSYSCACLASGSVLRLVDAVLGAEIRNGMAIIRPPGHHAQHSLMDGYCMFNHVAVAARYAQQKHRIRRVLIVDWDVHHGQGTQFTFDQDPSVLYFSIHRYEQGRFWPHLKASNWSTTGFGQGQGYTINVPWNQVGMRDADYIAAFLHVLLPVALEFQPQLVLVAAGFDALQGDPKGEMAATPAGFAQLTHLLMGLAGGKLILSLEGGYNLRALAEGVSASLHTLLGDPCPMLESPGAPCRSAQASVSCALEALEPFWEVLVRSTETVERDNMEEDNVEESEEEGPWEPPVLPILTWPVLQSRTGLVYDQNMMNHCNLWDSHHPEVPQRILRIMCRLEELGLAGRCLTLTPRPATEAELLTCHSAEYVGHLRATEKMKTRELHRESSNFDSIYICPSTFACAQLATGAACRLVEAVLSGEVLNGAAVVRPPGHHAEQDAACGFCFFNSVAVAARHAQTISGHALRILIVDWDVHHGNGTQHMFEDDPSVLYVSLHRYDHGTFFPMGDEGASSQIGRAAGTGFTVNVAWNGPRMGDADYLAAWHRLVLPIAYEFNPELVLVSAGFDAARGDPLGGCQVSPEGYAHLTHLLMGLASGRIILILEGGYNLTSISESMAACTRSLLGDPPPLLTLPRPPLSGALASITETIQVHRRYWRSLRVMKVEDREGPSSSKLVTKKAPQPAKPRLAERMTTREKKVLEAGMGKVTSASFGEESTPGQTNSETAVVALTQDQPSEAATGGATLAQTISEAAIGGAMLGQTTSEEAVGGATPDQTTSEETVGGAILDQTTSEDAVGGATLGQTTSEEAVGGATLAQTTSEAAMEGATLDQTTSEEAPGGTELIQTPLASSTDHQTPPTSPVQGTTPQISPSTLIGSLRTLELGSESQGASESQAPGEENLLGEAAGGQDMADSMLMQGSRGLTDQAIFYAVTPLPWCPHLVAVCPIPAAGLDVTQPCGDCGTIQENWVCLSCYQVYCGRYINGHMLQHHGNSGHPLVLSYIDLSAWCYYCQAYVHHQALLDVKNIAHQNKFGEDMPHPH

[3] = molecular target: T4, Polyamine deacetylase HDAC10 (Homo sapiens, UniProt Q969S8); assay: Inhibition of HDAC10 (unknown origin) by fluorescence assay
T4 sequence (Q969S8 whole entry): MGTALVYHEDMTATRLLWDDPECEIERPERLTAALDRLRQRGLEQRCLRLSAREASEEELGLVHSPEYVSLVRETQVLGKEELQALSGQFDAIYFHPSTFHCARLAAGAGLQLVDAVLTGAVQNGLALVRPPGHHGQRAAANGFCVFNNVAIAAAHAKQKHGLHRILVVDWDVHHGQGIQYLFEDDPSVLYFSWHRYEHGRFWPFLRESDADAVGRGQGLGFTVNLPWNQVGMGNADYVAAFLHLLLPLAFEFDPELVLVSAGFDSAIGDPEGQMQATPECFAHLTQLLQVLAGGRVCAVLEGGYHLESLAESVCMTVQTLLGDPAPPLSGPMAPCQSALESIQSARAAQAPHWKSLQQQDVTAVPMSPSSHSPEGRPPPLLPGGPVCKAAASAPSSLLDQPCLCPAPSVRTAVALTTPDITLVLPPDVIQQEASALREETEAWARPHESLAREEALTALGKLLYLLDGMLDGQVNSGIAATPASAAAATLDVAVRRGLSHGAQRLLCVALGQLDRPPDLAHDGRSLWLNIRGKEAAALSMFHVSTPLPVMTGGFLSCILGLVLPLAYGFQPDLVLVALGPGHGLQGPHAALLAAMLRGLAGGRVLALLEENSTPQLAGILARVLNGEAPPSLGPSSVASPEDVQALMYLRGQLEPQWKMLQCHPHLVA

Histone deacetylase 11 = molecular target: T5, Histone deacetylase 11 (Homo sapiens, UniProt Q96DB2); assay: Inhibition of human recombinant HDAC11 using fluorogenic HDAC substrate class 2A by fluorescence assay
T5 sequence (Q96DB2 whole entry): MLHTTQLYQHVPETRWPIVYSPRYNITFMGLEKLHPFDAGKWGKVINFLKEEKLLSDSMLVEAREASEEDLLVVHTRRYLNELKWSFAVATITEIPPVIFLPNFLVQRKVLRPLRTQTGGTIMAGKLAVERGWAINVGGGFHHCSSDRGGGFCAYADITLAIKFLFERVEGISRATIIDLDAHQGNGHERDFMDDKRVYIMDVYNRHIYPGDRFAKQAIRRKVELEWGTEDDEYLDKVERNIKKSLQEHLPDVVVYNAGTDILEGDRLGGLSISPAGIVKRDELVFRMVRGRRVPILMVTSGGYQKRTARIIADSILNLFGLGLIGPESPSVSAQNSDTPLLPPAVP

SH-SY5Y = assay: Cytotoxicity against human SH-SY5Y cells assessed as reduction in cell viability after 3 days by MTS assay; assay type: functional; settings: for GI50: 72 h
[4] = molecular target: T6, Protein deacetylase HDAC6 (Homo sapiens) (UniProt Q9UBN7); assay: Inhibition of HDAC6 in human SH-SY5Y cells assessed as increase in alpha-tubulin acetylation after 24 hrs by Western blot analysis; assay type: cell-based
T6 sequence (whole entry): T3 sequence (Q9UBN7 whole entry)

[5] = molecular target: T6, Protein deacetylase HDAC6 (Homo sapiens); assay: Inhibition of HDAC6 in human SH-SY5Y cells assessed as increase in alpha-tubulin acetylation at 0.5 uM after 24 hrs by Western blot analysis; assay type: cell-based
Histone deacetylase 1 [6] = molecular target: T1, Histone deacetylase 1; assay: Inhibition of HDAC1 in human SH-SY5Y cells assessed as increase in histone H3 acetylation up to 20 uM after 24 hrs by Western blot analysis; assay type: cell-based
[7] = molecular target: T6, Protein deacetylase HDAC6 (Homo sapiens); assay: Inhibition of HDAC6 in human H1975 cells assessed as alpha-tubulin acetylation up to 10 uM after 24 hrs by Hoechst staining-based fluorescence microscopic analysis; assay type: cell-based
[8] = molecular target: T6, Protein deacetylase HDAC6 (Homo sapiens); assay: Inhibition of HDAC6 in human H1975 cells assessed as microtubule polymerization up to 10 uM after 24 hrs by Hoechst staining-based fluorescence microscopic analysis; assay type: cell-based
Histone deacetylase 7 = molecular target: T7, Histone deacetylase 7 (Homo sapiens, UniProt Q8WUI4); assay: Inhibition of human recombinant HDAC7 using fluorogenic HDAC substrate class 2A by fluorescence assay
T7 sequence (Q8WUI4 whole entry): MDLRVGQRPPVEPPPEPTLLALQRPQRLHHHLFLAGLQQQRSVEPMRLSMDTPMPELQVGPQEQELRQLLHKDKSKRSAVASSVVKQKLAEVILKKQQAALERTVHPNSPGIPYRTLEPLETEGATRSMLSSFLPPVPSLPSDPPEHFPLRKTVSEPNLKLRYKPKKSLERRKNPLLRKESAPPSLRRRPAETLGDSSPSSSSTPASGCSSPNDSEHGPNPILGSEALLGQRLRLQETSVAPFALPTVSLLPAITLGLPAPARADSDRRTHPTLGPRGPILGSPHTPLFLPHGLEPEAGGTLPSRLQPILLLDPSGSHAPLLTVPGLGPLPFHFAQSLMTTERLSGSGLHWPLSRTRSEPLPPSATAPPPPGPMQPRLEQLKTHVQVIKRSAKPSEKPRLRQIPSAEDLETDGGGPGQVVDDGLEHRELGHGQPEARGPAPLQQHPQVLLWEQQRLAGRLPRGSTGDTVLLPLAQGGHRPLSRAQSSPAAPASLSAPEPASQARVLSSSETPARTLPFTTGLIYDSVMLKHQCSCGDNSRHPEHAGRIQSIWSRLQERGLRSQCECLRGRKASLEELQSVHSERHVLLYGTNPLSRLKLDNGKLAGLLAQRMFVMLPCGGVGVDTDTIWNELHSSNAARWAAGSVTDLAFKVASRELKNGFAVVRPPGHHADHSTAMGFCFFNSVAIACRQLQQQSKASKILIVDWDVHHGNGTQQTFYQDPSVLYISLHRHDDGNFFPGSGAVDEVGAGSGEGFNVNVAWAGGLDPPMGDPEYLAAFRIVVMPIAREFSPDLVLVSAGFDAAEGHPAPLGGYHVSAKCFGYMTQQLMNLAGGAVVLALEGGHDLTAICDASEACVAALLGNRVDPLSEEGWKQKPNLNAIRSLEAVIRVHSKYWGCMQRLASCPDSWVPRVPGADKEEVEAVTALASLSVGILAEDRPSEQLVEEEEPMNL

T1 sequence (Q13547 whole entry): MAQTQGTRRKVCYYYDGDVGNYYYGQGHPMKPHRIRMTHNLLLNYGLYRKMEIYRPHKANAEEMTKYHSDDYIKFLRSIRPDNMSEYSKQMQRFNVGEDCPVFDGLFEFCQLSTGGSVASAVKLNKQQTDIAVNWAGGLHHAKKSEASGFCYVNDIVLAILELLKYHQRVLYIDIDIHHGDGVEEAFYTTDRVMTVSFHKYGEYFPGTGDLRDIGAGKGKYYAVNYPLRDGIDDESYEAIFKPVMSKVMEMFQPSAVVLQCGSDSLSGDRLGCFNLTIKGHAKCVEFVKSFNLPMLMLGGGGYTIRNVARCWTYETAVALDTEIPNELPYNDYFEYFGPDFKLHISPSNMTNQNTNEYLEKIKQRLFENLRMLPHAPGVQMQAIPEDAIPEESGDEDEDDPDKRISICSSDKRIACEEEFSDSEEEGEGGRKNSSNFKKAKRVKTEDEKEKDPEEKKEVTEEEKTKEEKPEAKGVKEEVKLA
Sequence of Histone deacetylase 4 (P56524 whole entry): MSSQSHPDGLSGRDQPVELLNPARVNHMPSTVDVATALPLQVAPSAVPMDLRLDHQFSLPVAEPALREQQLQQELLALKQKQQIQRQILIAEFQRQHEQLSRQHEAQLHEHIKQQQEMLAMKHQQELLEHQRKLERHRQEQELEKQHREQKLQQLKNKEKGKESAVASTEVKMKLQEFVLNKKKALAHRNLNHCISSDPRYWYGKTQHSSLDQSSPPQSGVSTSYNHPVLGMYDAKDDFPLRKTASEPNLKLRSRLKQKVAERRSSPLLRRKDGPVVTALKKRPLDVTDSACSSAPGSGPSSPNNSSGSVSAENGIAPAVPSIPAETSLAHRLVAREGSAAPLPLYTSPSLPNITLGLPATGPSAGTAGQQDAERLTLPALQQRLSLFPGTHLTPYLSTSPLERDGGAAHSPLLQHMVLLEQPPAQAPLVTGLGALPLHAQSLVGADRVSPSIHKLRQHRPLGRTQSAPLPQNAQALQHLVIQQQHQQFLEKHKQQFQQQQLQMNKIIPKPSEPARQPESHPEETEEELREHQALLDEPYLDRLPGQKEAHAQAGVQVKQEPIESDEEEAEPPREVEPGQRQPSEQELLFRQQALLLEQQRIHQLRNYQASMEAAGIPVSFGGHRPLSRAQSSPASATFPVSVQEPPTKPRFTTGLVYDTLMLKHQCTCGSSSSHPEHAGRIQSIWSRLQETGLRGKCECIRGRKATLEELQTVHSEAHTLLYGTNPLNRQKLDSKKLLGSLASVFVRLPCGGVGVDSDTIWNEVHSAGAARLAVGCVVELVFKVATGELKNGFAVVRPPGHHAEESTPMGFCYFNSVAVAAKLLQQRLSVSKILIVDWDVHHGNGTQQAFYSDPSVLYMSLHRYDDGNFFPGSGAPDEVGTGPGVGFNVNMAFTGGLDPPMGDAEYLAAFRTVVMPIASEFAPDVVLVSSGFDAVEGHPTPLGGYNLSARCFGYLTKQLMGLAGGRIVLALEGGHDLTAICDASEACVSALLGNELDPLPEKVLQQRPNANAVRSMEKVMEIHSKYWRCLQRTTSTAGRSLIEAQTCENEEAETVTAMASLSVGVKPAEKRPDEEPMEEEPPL
Sequence of Histone deacetylase 9 (Q9UKV0 whole entry): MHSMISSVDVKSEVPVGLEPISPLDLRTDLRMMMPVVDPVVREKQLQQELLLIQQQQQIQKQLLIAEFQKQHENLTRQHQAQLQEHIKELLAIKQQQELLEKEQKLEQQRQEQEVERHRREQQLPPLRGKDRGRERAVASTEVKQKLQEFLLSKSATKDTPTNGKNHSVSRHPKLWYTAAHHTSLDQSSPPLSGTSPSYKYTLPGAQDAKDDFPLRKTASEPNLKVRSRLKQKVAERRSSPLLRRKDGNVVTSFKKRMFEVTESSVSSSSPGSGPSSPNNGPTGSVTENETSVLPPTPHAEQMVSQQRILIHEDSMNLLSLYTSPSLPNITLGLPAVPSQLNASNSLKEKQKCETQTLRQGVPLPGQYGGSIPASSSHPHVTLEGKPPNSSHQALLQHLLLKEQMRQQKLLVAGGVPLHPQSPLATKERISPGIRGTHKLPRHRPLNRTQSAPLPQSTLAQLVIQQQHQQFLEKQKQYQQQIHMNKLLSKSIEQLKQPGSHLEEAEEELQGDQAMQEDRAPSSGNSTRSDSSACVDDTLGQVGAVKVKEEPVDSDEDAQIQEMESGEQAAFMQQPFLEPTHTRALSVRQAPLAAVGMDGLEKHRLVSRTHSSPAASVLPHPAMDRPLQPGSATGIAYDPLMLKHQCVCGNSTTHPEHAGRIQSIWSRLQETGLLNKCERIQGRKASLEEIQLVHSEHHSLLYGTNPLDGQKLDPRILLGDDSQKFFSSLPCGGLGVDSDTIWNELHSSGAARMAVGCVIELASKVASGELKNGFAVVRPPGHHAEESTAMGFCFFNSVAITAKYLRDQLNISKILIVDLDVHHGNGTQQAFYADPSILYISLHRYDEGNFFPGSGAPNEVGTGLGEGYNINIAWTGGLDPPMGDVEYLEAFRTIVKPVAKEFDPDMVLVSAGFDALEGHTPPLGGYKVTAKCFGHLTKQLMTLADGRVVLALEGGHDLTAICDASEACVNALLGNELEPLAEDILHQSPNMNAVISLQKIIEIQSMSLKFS
Sequence of Histone deacetylase 2 (Q92769 whole entry): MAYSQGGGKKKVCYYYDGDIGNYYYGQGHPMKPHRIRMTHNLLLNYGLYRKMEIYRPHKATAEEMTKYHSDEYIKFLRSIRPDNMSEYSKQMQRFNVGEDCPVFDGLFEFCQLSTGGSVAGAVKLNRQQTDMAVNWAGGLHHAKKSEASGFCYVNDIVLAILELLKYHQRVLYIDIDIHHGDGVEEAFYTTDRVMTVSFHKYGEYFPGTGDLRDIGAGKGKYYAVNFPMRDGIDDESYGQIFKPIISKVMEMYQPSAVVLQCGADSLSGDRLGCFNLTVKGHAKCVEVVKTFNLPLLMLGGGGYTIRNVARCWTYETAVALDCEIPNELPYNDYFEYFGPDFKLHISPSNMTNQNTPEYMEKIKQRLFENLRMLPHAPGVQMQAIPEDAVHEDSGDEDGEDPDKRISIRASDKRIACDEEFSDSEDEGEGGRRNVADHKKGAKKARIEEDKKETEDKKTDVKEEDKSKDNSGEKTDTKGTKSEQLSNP
Sequence of Histone deacetylase 3 (O15379 whole entry): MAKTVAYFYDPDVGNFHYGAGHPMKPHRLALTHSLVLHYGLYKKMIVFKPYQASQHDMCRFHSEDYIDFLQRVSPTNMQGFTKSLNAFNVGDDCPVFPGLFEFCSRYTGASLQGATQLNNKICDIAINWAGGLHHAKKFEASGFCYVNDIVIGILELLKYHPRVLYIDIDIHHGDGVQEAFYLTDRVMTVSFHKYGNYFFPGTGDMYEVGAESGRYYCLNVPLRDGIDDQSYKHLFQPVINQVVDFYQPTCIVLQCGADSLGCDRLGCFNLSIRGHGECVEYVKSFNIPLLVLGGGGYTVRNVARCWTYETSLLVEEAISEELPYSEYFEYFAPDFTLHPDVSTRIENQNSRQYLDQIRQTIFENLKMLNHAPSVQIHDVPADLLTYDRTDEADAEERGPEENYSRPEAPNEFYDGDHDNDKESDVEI
Sequence of Histone deacetylase 5 (Q9UQL6 whole entry): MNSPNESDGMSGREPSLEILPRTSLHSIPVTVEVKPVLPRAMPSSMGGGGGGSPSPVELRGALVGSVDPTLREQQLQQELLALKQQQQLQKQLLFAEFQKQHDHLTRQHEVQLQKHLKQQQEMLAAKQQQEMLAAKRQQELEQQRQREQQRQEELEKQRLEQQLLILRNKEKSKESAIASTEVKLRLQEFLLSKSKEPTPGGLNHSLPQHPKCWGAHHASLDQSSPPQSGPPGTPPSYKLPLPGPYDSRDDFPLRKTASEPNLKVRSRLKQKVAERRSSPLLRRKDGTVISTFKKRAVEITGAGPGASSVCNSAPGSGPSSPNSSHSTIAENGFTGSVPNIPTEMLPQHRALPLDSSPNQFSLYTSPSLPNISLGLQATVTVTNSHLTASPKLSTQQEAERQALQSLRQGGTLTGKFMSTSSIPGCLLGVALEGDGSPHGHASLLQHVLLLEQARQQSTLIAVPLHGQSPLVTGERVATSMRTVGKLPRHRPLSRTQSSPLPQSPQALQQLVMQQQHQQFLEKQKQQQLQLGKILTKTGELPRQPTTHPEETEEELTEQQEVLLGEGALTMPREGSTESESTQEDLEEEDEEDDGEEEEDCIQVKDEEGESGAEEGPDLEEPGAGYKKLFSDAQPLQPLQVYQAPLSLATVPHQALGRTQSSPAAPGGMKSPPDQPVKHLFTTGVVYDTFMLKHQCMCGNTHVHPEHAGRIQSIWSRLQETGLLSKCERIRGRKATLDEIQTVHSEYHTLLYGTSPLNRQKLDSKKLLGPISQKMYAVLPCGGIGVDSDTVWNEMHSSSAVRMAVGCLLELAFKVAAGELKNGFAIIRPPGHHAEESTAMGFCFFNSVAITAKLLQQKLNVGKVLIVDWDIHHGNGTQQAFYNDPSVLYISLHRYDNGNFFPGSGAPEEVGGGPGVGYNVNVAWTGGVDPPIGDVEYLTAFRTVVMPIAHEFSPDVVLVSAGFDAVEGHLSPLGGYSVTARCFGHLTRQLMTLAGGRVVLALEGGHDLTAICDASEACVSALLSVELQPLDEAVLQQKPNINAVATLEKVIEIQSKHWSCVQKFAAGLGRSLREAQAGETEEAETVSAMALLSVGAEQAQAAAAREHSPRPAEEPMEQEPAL

| SMILES | IC50 (Histone deacetylase 1 [1]) [µM] | IC50 (Histone deacetylase 2) [µM] | IC50 (Histone deacetylase 3) [µM] | IC50 (Histone deacetylase 8) [µM] | IC50 (Histone deacetylase 4) [µM] | IC50 (Histone deacetylase 5) [µM] | IC50 (Histone deacetylase 9) [µM] | IC50 [2] [µM] | IC50 [3] [µM] | IC50 (Histone deacetylase 11) [µM] | Activity (SH-SY5Y) | GI50 (SH-SY5Y) [µM] | inhibition [4] | inhibition [5] | inhibition (Histone deacetylase 1 [6]) | inhibition [7] | inhibition [8] | IC50 (Histone deacetylase 7) [µM] |
| --- | --- | --- | --- | --- | --- | --- | --- | --- | --- | --- | --- | --- | --- | --- | --- | --- | --- | --- |
| O=C(NO)c1ccc2c(c1)C(=O)c1ccccc1C2=O | 0.91 | 4.62 | 3.95 | 0.599 | 5.61 | 1.36 | 7.78 | 0.056 | 5 | 80 | Dose-dependent effect | 15.8 | Dose-dependent effect | Active | inactive | Active | Active |  |
| O=C(/C=C/c1ccc2c(c1)C(=O)c1ccccc1C2=O)NO | 3.07 | 13.6 | 1.97 | > 100 | 16.2 | 8.59 | > 100 | 0.536 | 1.47 | > 100 | Dose-dependent effect | 22.3 |  |  |  |  |  | > 100 |
